Laboratory results reported in PMC10301603, “Potent and Selective Benzothiazole-Based Antimitotics with Improved Water Solubility: Design, Synthesis, and Evaluation as Novel Anticancer Agents” (Pharmaceutics, 2023).

Assays:
HT-29 cells = assay: Cell growth inhibition assay (MTT); assay type: cell-based, human
Summary of the method: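 Following overnight (24 h) attachment, cultures received serial compound concentrations from 10^−10 to 10^−2 M and were incubated 72 h before MTT viability measurement. Where efflux-pump sensitivity was tested, IC50 was redetermined with 10 µM verapamil present.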

HeLa cells [1] = assay: Cell growth inhibition assay (MTT); assay type: cell-based, human; conditions: 72 h after drug exposure
Summary of the method: (§1)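 Cells seeded (30,000 cells/mL for T98G and PC-3; 15,000 cells/mL for HeLa), attached 24 h at 37 °C, then treated with compounds at 10^−10 to 10^−2 M for 72 h. Viability read by MTT; IC50 from triplicate points, three independent experiments.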

LNCaP cells = assay: Cell growth inhibition assay (MTT); assay type: cell-based, human; conditions: 72 h after drug exposure
Summary of the method: (§2)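 24 h attachment at 37 °C/5% CO2 in complete DMEM; compounds 10^−10–10^−2 M, 72 h; MTT; IC50 fit, n=3 × triplicate. MDR sensitivity: same, + verapamil 10 µM final.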

MCF7 cells [2] = assay: Cell growth inhibition assay (MTT); assay type: cell-based, human; conditions: for IC50: MTT, 72 h after drug exposure
Summary of the method: as §2

T98G cells = assay: Cell growth inhibition assay (MTT); assay type: cell-based, human; conditions: 72 h after drug exposure
Summary of the method: as §1

U87MG cells [3] = assay: Cell growth inhibition assay (MTT); assay type: cell-based, human; conditions: for IC50: MTT, 72 h after drug exposure
Summary of the method: as §2

GL261 cells = assay: Cell growth inhibition assay (MTT); assay type: cell-based, murine
Summary of the method: as §2

HEK-293 cells = assay: Cell growth inhibition assay (MTT), non-tumorigenic cells; assay type: cell-based, human; conditions: non-tumorigenic cell line
Summary of the method: as §2

HeLa cells [4] = assay: Apoptotic cell death quantification (Annexin V-FITC/PI); assay type: cell-based, human; conditions: 72 h, 8 and 14 200 nM, 9 500 nM
Protocol: (§3) Annexin V-FITC/PI apoptosis detection kit (Immunostep, Salamanca, Spain) was used to quantify HeLa, MCF7, or U87 MG cells by following the manufacturer’s guidelines. An amount of 5 × 10^4 cells/mL were seeded in 12-well plates (1 mL/well) and incubated in complete DMEM medium (see above) at 37 °C and 5% CO2 atmosphere for 24 h. Then, the medium was replaced with fresh complete DMEM in the presence or absence of the selected compounds (8, 9, and 14). The concentration of the compounds was selected according to their IC50 value for the antiproliferative activity in each cell line (see above, Section 2.4.4). HeLa cells were treated with 200 nM of compounds 8 and 14 and 500 nM of compound 9; MCF7 cells were treated with 100 nM of compounds 8 and 14 and 500 nM of compound 9; and U87 MG cells were treated with 50 nM of compound 8 and 100 nM of compounds 9 and 14. Untreated cells were used as negative controls. After 72 h of incubation, cells were collected, centrifugated, resuspended in the Annexin V binding buffer, and stained with Annexin V-FITC/PI. Cells were then incubated in darkness for 15 min at room temperature. Samples were analyzed using BD Accuri™ C6 Plus Flow Cytometer (BD Biosciences), and acquired data were analyzed using BD Accuri™ C6 Software (version 1.0.264.21).

MCF7 cells [5] = assay: as above; assay type: cell-based, human; conditions: MCF7, 72 h; 8 and 14 100 nM, 9 500 nM
Protocol: as §3

U87MG cells [6] = assay: as above; assay type: cell-based, human; conditions: U87 MG, 72 h; 8 50 nM, 9 and 14 100 nM
Protocol: as §3

U87MG cells [7] = assay: Lactate dehydrogenase (LDH) release assay; assay type: cell-based, human; conditions: 72 h
Protocol: CytoTox96® Non-Radioactive Cytotoxicity Assay kit (Promega, Madison, WI, USA) was used to measure the release of lactate dehydrogenase (LDH) by following the previously described method in [46]. Briefly, U87 MG or HEK-293 cells were incubated for 72 h with compounds 8, 9, or 14 at concentrations ranging from 10^−9 to 10^−6 M for U87 MG cells, and from 10^−4 to 10^−3 M for HEK-293 cells. After treatment, the supernatants were collected, and the intact attached cells were lysed using 0.1% (w/v) Triton X-100 in (0.9%) NaCl solution. Both the LDH released to culture media, as well as the LDH content within the cells, were determined spectrophotometrically at 490 nm on a 96-well plate reader (Infinite 200, Tecan, Salzburg, Austria) by following the manufacturer’s instructions. LDH release was defined by the ratio of LDH released/total LDH present in the cells, with the total LDH being 100%. All the samples were run in quadruplicate.

## CCNC(=O)N(Cc1cccnc1)c1nc2ccc(OC)cc2s1 [Compound 8]
HT-29 cells; 72 h after drug exposure
  IC50: 208 nM
HeLa cells [1]
  IC50: 85 nM
LNCaP cells
  IC50: 88 nM
MCF7 cells [2]
  IC50: 34 nM
T98G cells
  IC50: 52 nM
U87MG cells [3]; HEK-293 versus U87MG
  selectivity index against U87MG: ~900
U87MG cells [3]
  IC50: 9 nM
GL261 cells; 72 h after drug exposure
  IC50: 25 nM
HEK-293 cells; 72 h after drug exposure
  IC50: 7970 nM
HeLa cells [4]
  early and late apoptosis (apoptotic cells): 93%
MCF7 cells [5]
  Alive cells (PI−, AnV−): 46%
  apoptosis (apoptotic cells): 47%
U87MG cells [6]
  cells in early or late apoptosis (response to Annexin V): 80%
U87MG cells [7]; 1 nM
  LDH release: ~40%
U87MG cells [7]; 10 nM
  LDH release: over 60%
U87MG cells [7]; 100 nM
  LDH release: 100%

## COc1ccc2nc(N(C=O)Cc3cccnc3)sc2c1 [Compound 14, N-(6-methoxybenzo[d]thiazol-2-yl)-N-(pyridin-3-ylmethyl)formamide]
HT-29 cells; Homo sapiens, HT-29, 72 h after drug exposure
  IC50: 322 nM
HeLa cells [1]; Homo sapiens, HeLa
  IC50: 107 nM
LNCaP cells; Homo sapiens, LNCaP
  IC50: 93 nM
MCF7 cells [2]; HEK-293 versus MCF7
  selectivity index against MCF7: ~500
MCF7 cells [2]; Homo sapiens, MCF7
  IC50: 15 nM
T98G cells; Homo sapiens, T98G
  IC50: 75 nM
U87MG cells [3]; Homo sapiens, U-87 MG
  IC50: 37 nM
GL261 cells; Mus musculus, GL261, 72 h after drug exposure
  IC50: 35 nM
HEK-293 cells; Homo sapiens, HEK293, 72 h after drug exposure
  IC50: 8220 nM
HeLa cells [4]
  early and late apoptosis (apoptotic cells): 86%
MCF7 cells [5]
  apoptosis (apoptotic cells): 71%
U87MG cells [6]
  cells in early or late apoptosis (response to Annexin V): 67%
U87MG cells [7]; 1 nM
  LDH release: around 10%
U87MG cells [7]; 10 nM
  LDH release: ~20%
U87MG cells [7]; above 100 nM
  cell death (LDH release): 100%
